Measurements as given in patent publication US9765082B2, “Crystalline form of tiotropium bromide with lactose” (EUTICALS SPA, priority 2014, dated 2017).

Legend:
[1] = Stability of the crystalline form on storage, analyzed by DRX (powder); type: physicochemical; conditions: particularly polyethylene bag as primary packaging; driven by relative humidity
Source text: X-Ray Diffraction spectra were registered by means of diffractometer (Rigaku-D-Max) from a start angle [½ 2-theta] of 5.000 to 60.000. The diffraction diagrams were obtained employing a Cu anode (Kα=1,54060 Å and Kα=1,54439 Å). The HPLC method utilized to check the quality of Tiotropium Bromide in the examined samples is the same as described in the European Pharmacopoeia 7.0.

[2] = 40° C. for few hours; literature data; cited from earlier work
[3] = Solid-state change of Tiotropium Bromide monohydrate on heating, by DRX; type: physicochemical; conditions: 40° C. at 50% UR for 72 hours, FIGS. 4 and 4A
Description: FIGS. 4 and 4A show the DRX spectra of a Tiotropium Bromide monohydrate before and after the heating at 40° C. at 50% UR for 72 hours.
In fact, this is an equilibrium that is driven by the relative humidity of the environment. […] See the enclosed DRX spectra of a Tiotropium Bromide monohydrate before and after the above described treatment (FIGS. 4 and 4A).

| SMILES | Crystalline form in the same storage conditions [1] | Solid state after mild heating [2] | Solid state after heating (DRX) [3] |
| --- | --- | --- | --- |
| C[N+]1(C)[C@@H]2C[C@@H](OC(=O)C(O)(c3cccs3)c3cccs3)C[C@H]1[C@@H]1O[C@@H]12.[Br-] [Tiotropium Bromide, Tiotropium bromide] | may absorb or lose water, thus changing the crystalline form | – | – |
| C[N+]1(C)[C@@H]2C[C@@H](OC(=O)C(O)(c3cccs3)c3cccs3)C[C@H]1[C@@H]1O[C@@H]12 [Tiotropium Bromide monohydrate] | – | easily transformed | changes into the corresponding anhydrous form |
